In patent publication US12251422B2, “Compositions and methods for treating neurological and other disorders” (Rush University Medical Center, priority 2018, dated 2025):

Legend:
p65 and p50 = assay: Nuclear translocation of p65 and p50 in BV-2 microglial cells (Western blot); type: cell-based; conditions: 10 μM peptide 1 h, 1 μM fibrillar Aβ1-42
Protocol: FIG. 15 (A-F). Effect of wtTIDM peptide on fibrillar Aβ- and LPS-induced nuclear translocation of p65 and p50 in microglial cells. BV-2 microglial cells preincubated with 10 μM wtTIDM peptide for 1 h were stimulated with either 1 μM fibrillar Aβ1-42 (A-C) or 1 μg/ml LPS (D-F) under serum-free condition. At different minute intervals, levels of p65 and p50 (A, fibrillar Aβ; D, LPS) were monitored in nuclear extracts by Western blot. Histone H3 was run as a loading control. Bands were scanned and values of p65/H3 (B & E) and p50/H3 (C & F) are presented as relative to control (n=2 replicates/condition in 3 independent experiments). ap<0.05, bp<0.001 vs control; cp<0.01 vs 30 min stimulation; dp<0.05 vs 15 min stimulation; NS, not significant by two-sample t-tests.

NF-κB = NF-κB activation by EMSA in primary microglia from WT mice; type: cell-based, mouse; conditions: peptide 1 h, 1 μM fibrillar Aβ1-42 for 1 h
Protocol: (§1) FIG. 16 (A-F). […] Primary microglia isolated from WT (A) and TLR2 (−/−) (B) mice were treated with different concentrations of wtTIDM peptide for 1 h followed by stimulation with 1 μM fibrillar Aβ1-42 under serum-free condition. After 1 h of stimulation, the activation of NF-κB was monitored by EMSA. WT (C & D) and TLR2 (−/−) (E & F) microglia were treated with different concentrations of wtTIDM and mTIDM peptides for 1 h followed by stimulation with 1 μM fibrillar Aβ1-42 under serum-free condition. After 18 h of stimulation, levels of TNFα (C & E) and IL-1β (D & F) were monitored in supernatants by ELISA (n=2 replicates/condition in 3 independent experiments). ap<0.001 vs control; bp<0.001 vs stimuli by two-sample t-tests.
Nuclear extracts were isolated and EMSA was carried out as described before (22, 23).

TNFα and IL-1β = TNFα and IL-1β ELISA in supernatants of WT primary microglia; type: cell-based, mouse; conditions: peptide 1 h, 1 μM fibrillar Aβ1-42 for 18 h
Protocol: as §1

5×FAD Tg mice [1] = assay: Amyloid plaque / Aβ load in 5×FAD Tg mice; type: in vivo, mouse; conditions: 0.1 mg/kg body wt/2 d intranasal, 30 d
Protocol: FIG. 5 (A-Q). […] Actin was run as loading control. […] M) Hippocampal sections were immunolabeled with 82E1 mAb. […] Arrowhead indicates 4 kDa Aβ band.
FIG. 20 (A-B). Intranasal delivery of wtTIDM, but not mTIDM, peptide lowers the burden of amyloid plaques in the hippocampus of Tg mice. […] Actin was run as loading control. […] Results were analyzed by two-sample t-tests.
FIG. 21 (A-F). Intranasal delivery of wtTIDM, but not mTIDM, peptide reduces the levels of Aβ1-40 and Aβ1-42 in serum and hippocampus of Tg mice. […] After 30 d of treatment. ELISA quantification of Aβ1-40 (A, C & E) and Aβ1-42 (B, D & F) was performed in serum (A & B) and TBS (C & D) and (TBS+Triton X-100) (E & F) extracted hippocampal tissues. Six mice (n=6 per group) were used in two independent experiments. ap<0.01 & cp<0.001 versus non-Tg; bp<0.01 & dp<0.001 versus Tg by two-sample t-tests.
(§2) B6SJL-Tg (APPSwFlLon,PSEN1*M146L*L286V) 6799Vas/J transgenic (5×FAD or termed here as Tg) mice were purchased from Jackson Laboratories (Bar Harbor, ME). […] Briefly, TIDM peptides were dissolved in 5 μl normal saline, mice were hold in supine position and saline was delivered into one nostril using a pipetman.
Hippocampal tissues were homogenized in TBS, pelleted for 30 min×150,000 g. […]

5×FAD Tg mice [2] = assay: Neuronal apoptosis and plasticity-related molecules in hippocampus of 5×FAD Tg mice; type: in vivo, mouse; conditions: 0.1 mg/kg body wt/2 d intranasal, 30 d
Text: (§3) FIG. 6 (A-N). Intranasal delivery of wtTIDM, but not mTIDM, peptide inhibits neuronal apoptosis in vivo in the hippocampus and improves memory and learning in Tg mice. […] After 30 d of treatment, mice were sacrificed and hippocampal sections were double-labeled for TUNEL & NeuN (A). […] Hippocampal extracts of all groups of mice (n=4) were immunoblotted for cleaved caspase 3 (D). Actin was run as loading control. E) Bands were scanned and values (cleaved caspase 3/Actin) are presented as relative to non-Tg control. […] Protein levels of PSD-95. NR2A and GluR1 were monitored in hippocampal extracts by Western blot (F). Bands were scanned and values (G, PSD-95/Actin; H, NR2A/Actin; I, GluR1/Actin) are presented as relative to non-Tg control. […] Mice were tested for Barnes maze (J, latency; K, number of errors made) and T maze (L, number of positive turns; M, number of negative turns). Short-term memory was also monitored by novel object recognition test, which is represented by discrimination index (N). Eight mice (n=8) were used in each group and results were analyzed by one-way ANOVA.
as §2
It was performed using a commercially available kit (TdT FragEL™, Calbiochem) as described before (10, 22).

5×FAD Tg mice [3] = assay: Barnes maze and T maze in 5×FAD Tg mice; type: in vivo, mouse
Text: as §3
Maze experiments were performed as described by us (52, 57). Briefly, for Barnes maze, mice were trained for 2 consecutive days followed by examination on day 3. […]

CC[C@H](C)[C@H](NC(=O)[C@H](CCCCN)NC(=O)[C@@H](NC(=O)[C@H](CCC(N)=O)NC(=O)[C@H](CCCNC(=N)N)NC(=O)[C@@H](N)CC(=O)O)[C@@H](C)CC)C(=O)N[C@@H](Cc1c[nH]c2ccccc12)C(=O)N[C@@H](Cc1ccccc1)C(=O)N[C@@H](CCC(N)=O)C(=O)N[C@@H](CC(N)=O)C(=O)N[C@@H](CCCNC(=N)N)C(=O)N[C@@H](CCCNC(=N)N)C(=O)N[C@@H](CCSC)C(=O)N[C@@H](CCCCN)C(=O)N[C@@H](Cc1c[nH]c2ccccc12)C(=O)N[C@@H](CCCCN)C(=O)N[C@@H](CCCCN)C(=O)N1CCC[C@H]1C(=O)NCC(=O)N[C@@H](C)C(=O)N[C@@H](Cc1c[nH]cn1)C(=O)N[C@@H](CCC(N)=O)C(=O)N[C@@H](CCCCN)C(=O)O [wtTIDM, drqikiwfqnrrmkwkkPGAHQK]
inhibition of nuclear translocation of p65 and p50, fibrillar Aβ1-42 (p65 and p50): inhibited
inhibition of fibrillar Aβ1-42-induced activation of NF-κB in WT primary microglia (NF-κB): inhibited
inhibition of fibrillar Aβ1-42-induced production of TNFα and IL-1β in WT microglia (TNFα and IL-1β): inhibited
Aβ (plaques, Western blot, ELISA of Aβ1-40 and Aβ1-42 in serum and hippocampus) (5×FAD Tg mice [1]): significant decrease
PSD-95, NR2A and GluR1 proteins in the hippocampus (5×FAD Tg mice [2]): significant restoration
elevated level of cleaved caspase 3 in the hippocampus (5×FAD Tg mice [2]): reduced
neuronal apoptosis in the hippocampus (TUNEL & NeuN) (5×FAD Tg mice [2]): attenuated
memory functions in Barnes maze (latency, number of errors) (5×FAD Tg mice [3]; 0.1 mg/kg body wt/2 d intranasal, 30 d): significantly improved
spatial learning and memory in Tg mice (5×FAD Tg mice [3]; summary statement): improved
